Calls of active or inactive are those of the source. No cut-off for these calls is given here.

This experiment concerns Aspergillus niger. As to the kind of experiment: Antifungal activity against Aspergillus niger CICC 2273 assessed as inhibition of mycelial growth by microbroth dilution method. Format: functional, organism-based. In general terms: Broth dilution looks for growth in wells or tubes with falling amounts of substance.
In the case of `COc1ccc(-c2cc(=O)c3c(O)c(OC)c(OC)c(OC)c3o2)cc1OC`, the inhibition entry is “Active”.
`COc1ccc(-c2cc(=O)c3c(OC)c(OC)c(OC)c(OC)c3o2)cc1OC`: the inhibition result is “Active”.
The same measure for `COc1ccc(-c2oc3c(OC)c(OC)c(OC)c(OC)c3c(=O)c2O)cc1OC`: “inactive”.
The entry for `COc1ccc(-c2oc3cc(OC)c(OC)c(OC)c3c(=O)c2OC)cc1OC` is “Active”; for `CC(=O)C[C@H]1O[C@@H](Oc2ccc3c(=O)cc(-c4ccccc4)oc3c2)[C@H](O)[C@@H](O)[C@@H]1O` it is “inactive”; for `COc1ccc(-c2cc(=O)c3c(OC)c(OC)c(OC)cc3o2)cc1` it is “Active”.
